Assay [1] concerns the target T1, AF9-DOT1L interaction (Homo sapiens, UniProt P42568).
T1 construct: cDNA for human AF9 AHD domain (475-568) and ENL AHD domain (489-559) was synthesized; made in house; host or cells: E. coli BL21(DE3)
T1 sequence (P42568 475-568): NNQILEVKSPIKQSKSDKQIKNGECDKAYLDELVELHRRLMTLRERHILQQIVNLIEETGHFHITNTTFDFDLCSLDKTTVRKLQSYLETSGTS
Briefly: Alpha assay, AF9 AHD-DOT1L peptide interaction. To be noted: read-out: IC50, inhibition of AF9-DOT1L interaction. The assay is classed as binding. From the text:
(§1) We developed an Alpha (amplified luminescent proximity homogeneous assay) assay to determine the binding and inhibition of the PPI between maltose-binding protein (MBP)-tagged AF9 AHD and a biotin-labeled DOT1L peptide, using AlphaLisa streptavidin donor beads and anti-MBP acceptor beads. Laser excitation to the donor beads generates singlet oxygen radicals, which can travel for <200 nm in solution and cannot reach the free acceptor beads. The PPI brings the DOT1L coated donor beads and AHD coated acceptor beads together, allowing the radicals to activate the acceptor beads and produce luminescence. […] We also developed a fluorescence polarization (FP) assay. A fluorescein-labeled DOT1L peptide has a higher freedom in solution with a lower polarization value.
(§2) Alpha assays. Alpha assays were developed using Perkin-Elmer AlphaLisa anti-MBP kit, which contains streptavidin donor beads and anti-MBP acceptor beads. The assay was performed using a MBP-protein (5 nM), a biotinylated peptide (40 nM), and increasing concentrations of a compound in 25 µL buffer (PBS with 0.5 % BSA, pH 7.5) in 384-well plates according to the manufacturer's protocol and measured with a Tecan SPARK microplate reader. Data were imported into Prism (version 5.0), and IC50 values from 3 independent experiments with standard deviation were obtained by using a standard dose-response curve fitting.

Another assay deals with T2, AF9-AF4 interaction (Homo sapiens, UniProt P42568).
T2 construct: cDNA for human AF9 AHD domain (475-568) and ENL AHD domain (489-559) was synthesized; made in house; host or cells: E. coli BL21(DE3)
Briefly: Alpha assay, AF9-AF4 interaction. The assay is classed as binding. The note with it: read-out: IC50, inhibition of AF9-AF4 interaction. As for the experimental part: (§3) ENL is also a major MLL fusion partner (~10%). The AHD domains of human ENL and AF9 share a high homology with 82% identity and 89% similarity (Figure S1A). […] Our attempts to develop an Alpha assay for ENL-DOT1L failed. […] Compound 1's activity against ENL-DOT1L was therefore not determined.
as §2

In a further assay the target is T3, AF9-AFF4 interaction (Homo sapiens, UniProt P42568).
T3 construct: cDNA for human AF9 AHD domain (475-568) and ENL AHD domain (489-559) was synthesized; made in house; host or cells: E. coli BL21(DE3)
Description: Alpha assay, AF9-AFF4 interaction. The format is binding. The note with it: read-out: IC50, inhibition of AF9-AFF4 interaction. As for the experimental part:
as §3, §2

A further assay addresses T4, ENL-AF4 interaction (Homo sapiens, UniProt Q03111).
T4 construct: ENL AHD domain (489-559) was synthesized (by Genscript) and inserted into the pMAL c5X expression plasmid; made in house; host or cells: E. coli BL21(DE3)
Briefly: Alpha assay, ENL-AF4 interaction. The format is binding. To be noted: read-out: IC50, inhibition of ENL-AF4 interaction. As for the experimental part:
as §3, §2

In the next assay the target is T5, ENL-AFF4 interaction (Homo sapiens, UniProt Q03111).
T5 construct: ENL AHD domain (489-559) was synthesized (by Genscript) and inserted into the pMAL c5X expression plasmid; made in house; host or cells: E. coli BL21(DE3)
Briefly: Alpha assay, ENL-AFF4 interaction. The assay is classed as binding. The note with it: read-out: IC50, inhibition of ENL-AFF4 interaction. As for the experimental part:
as §3, §2

Assay [2] deals with T1, AF9-DOT1L interaction. Briefly: Fluorescence polarization (FP) inhibition assay, AF9-DOT1L. The format is binding.
Excerpt: as §1
Fluorescence polarization assay. It was performed in 96-well black microplates with each well containing a Fluorescein-labeled peptide (2 nM) and increasing concentration of a AF9/ENL protein in a buffer (20 mM HEPES, pH 7.5, 0.01% Triton X-100, 100 µL) for Kd determination. For IC50 determination, a Fluorescein-labeled peptide (2 nM), AF9/ENL protein (100 nM) and increasing concentration of a compound in the same buffer were placed in each well. Upon incubation of 1h, the FP value of each well was determined using a Tecan SPARK microplate reader. Data were similarly processed to obtain Kd or IC50 values.
A general note: In fluorescence polarisation assays a small probe gives low polarisation when free and higher when bound to something large.

The target of assay [3] is T6, maltose-binding protein (MBP)-tagged AF9 AHD domain (475-568) (human, UniProt P42568 475-568).
T6 construct: human AF9, AHD domain, residues 475-568; cDNA synthesized by Genscript, in pMAL c5X; No cleavage of MBP is described; the protein is captured or detected by anti-MBP in the Alpha and pull-down assays; also called MBP-AF9 AHD; source: E. coli BL21(DE3), purified (amylose resin, size exclusion)
T6 sequence (looked up): T1 sequence (P42568 475-568)
Briefly: fluorescence polarisation; direct titration: fluorescein-labeled peptide 2 nM, increasing concentration of AF9/ENL protein; 20 mM HEPES, pH 7.5, 0.01% Triton X-100; 1 h incubation. The note with it: both partners purified.

For assay [4], the target named is T7, maltose-binding protein (MBP)-tagged ENL AHD domain (489-559) (human, UniProt Q03111 489-559).
T7 construct: human ENL, AHD domain, residues 489-559; cDNA synthesized by Genscript, in pMAL c5X; No cleavage of MBP is described; source: E. coli BL21(DE3), purified (amylose resin, size exclusion)
T7 sequence (looked up): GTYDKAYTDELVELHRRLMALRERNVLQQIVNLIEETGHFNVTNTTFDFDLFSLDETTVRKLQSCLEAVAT
The description is as above. To be noted: both partners purified.

Several values for one entry are separate records, joined by “and”; a condition that tells them apart may be missing. Equal entries are not always repeated. No end group written: not given here. *: point of attachment. FITC = O=C1OC2(c3ccc(O)cc3Oc3cc(O)ccc32)c2ccc(NC(=S)*)cc21; Ahx = NCCCCCC(=O)O

Regarding `CC(C)(C)c1ccc(-n2cc(C(=O)NC3CCNCC3)nc2C2CCCCC2)cc1` [Compound 4], on AF9-DOT1L interaction [1], the IC50 was 24800 nM.

As to NKLPVSIPLASVVLPSRAERARST [DOT1L], the IC50 on AF9-DOT1L interaction [1] was 13 ± 1 nM; at AF9-AF4 interaction, 60 ± 12 nM; on AF9-AFF4 interaction it was 95 ± 16 nM; on ENL-AF4 interaction it was 13200 ± 1100 nM; at ENL-AFF4 interaction, 2000 ± 100 nM; against AF9-DOT1L interaction [2] it was 72 nM.

With `CC(C)(C)c1ccc(-c2ccc(-n3cc(C(=O)NC4CCNCC4)nc3-c3ccccc3)cc2)cc1` [Compound 2], the IC50 at AF9-DOT1L interaction [1] is 26500 nM and ~25000 nM; at AF9-DOT1L interaction [2], approximately 25000 nM.

B1: FITC-AHX-DOT1L peptide (peptide)
peptide: {FITC-Ahx}-NKLPVSIPLASVVLPSRAERARST
notes: Used in the FP assay; also called fluorescein-labeled DOT1L peptide; source: synthetic peptide, bought: Genscript
As to B1, the Kd was found to be 87 ± 9 nM in assay [3] and 640 ± 60 nM in assay [4].

B2: FITC-AHX-AF4 peptide (peptide)
peptide: {FITC-Ahx}-QSLMVKITLDLLSRIPQPPGK
notes: Used in the FP assay; source: synthetic peptide, bought: Genscript
Regarding B2, the Kd in assay [3] was determined as 18 ± 1 nM; in assay [4], 9.6 ± 1.7 nM.

B3: FITC-AHX-AFF4 peptide (peptide)
peptide: {FITC-Ahx}-YPLIVKIDLNLLTRIPGKPYK
notes: as for B2
For the molecule B3, the Kd was 15 ± 1 nM in assay [3] and 31 ± 6 nM in assay [4].

One may read the IC50 as the point on the concentration scale where inhibition reaches its midpoint. The Kd is the free concentration of one partner at which half of the binding sites on the other are occupied at equilibrium, for simple one-to-one binding. Low readings indicate tighter binding, high ones weaker binding.
